Data as given in ChEMBL document CHEMBL4219182, “One-pot, multicomponent synthesis of 2,3-disubstituted quinazolin-ones with potent and selective activity against Toxoplasma gondii” (Bioorg Med Chem Lett, 2018).
pIC50: −log10 of the molar value. Active and inactive are the calls of the source. The calls are words filed in the database; no cut-off is given here.

How the values were obtained:
[1] = Cytotoxicity against HFF by CellTiter96 AQueous one solution cell proliferation assay; type: cell-based; settings: human, HFF cells; read-out: TD50 (the source's name)
Toxoplasma gondii [2] = assay: Antiparasitic activity against tachyzoite stage of Toxoplasma gondii expressing beta-gal infected in HFF after 4 days by […] based assay; type: functional, organism-based; settings: 96 h
[3] = Therapeutic index, ratio of TD50 for HFF to IC50 for tachyzoite stage of Toxoplasma gondii expressing beta-gal infected in HFF; type: toxicity; settings: human; read-out: TI
Toxoplasma gondii [4] = assay: Antiparasitic activity against tachyzoite stage of Toxoplasma gondii infected in HFF assessed as inhibition of parasite replication by measuring increase in parasitophorous vacuoles containing 1 tachyzoites at 10 uM after 24 hrs by microscopic analysis; type: functional, organism-based
Toxoplasma gondii [5] = assay: Antiparasitic activity against tachyzoite stage of Toxoplasma gondii infected in HFF assessed as reduction in parasite invasion at 10 uM pretreated with parasite for 20 mins followed by infection in HFF measured by immunofluorescence staining based assay; type: functional, organism-based
Toxoplasma gondii [6] = assay: Antiparasitic activity against tachyzoite stage of Toxoplasma gondii infected in HFF assessed as reduction in parasite attachment to host cell at 10 uM pretreated with parasite for 20 mins followed by infection in HFF measured by immunofluorescence staining based assay; type: functional, organism-based
Toxoplasma gondii [7] = assay: Antiparasitic activity against tachyzoite stage of Toxoplasma gondii infected in HFF assessed as inhibition of parasite replication by measuring parasitophorous vacuoles containing 1 or 2 tachyzoites at 10 uM after 24 hrs by microscopic analysis; type: functional
Toxoplasma gondii [8] = assay: Antiparasitic activity against tachyzoite stage of Toxoplasma gondii infected in HFF assessed as inhibition of parasite replication by measuring parasitophorous vacuoles containing 1, 2, 4 and 8 tachyzoites at 10 uM after 24 hrs by microscopic analysis; type: functional, organism-based

COc1ccc(-n2c(-c3ccc(Br)cc3)nc3ccccc3c2=O)cc1
CC50 [1]: ≥ 320 µM
pIC50 (Toxoplasma gondii [2]): 4.49
IC90 (Toxoplasma gondii [2]): 81 µM
selectivity ratio [3]: 10

CCCCCCn1c(-c2ccc(Br)cc2)nc2ccccc2c1=O
CC50 [1]: 88 µM
pIC50 (Toxoplasma gondii [2]): 4.22
IC90 (Toxoplasma gondii [2]): 193 µM
inhibition (Toxoplasma gondii [4]): Active
Activity (Toxoplasma gondii [5]): Active
selectivity ratio [3]: 1
Activity (Toxoplasma gondii [6]): Active

O=c1c2ccccc2nc(-c2ccc(OCc3ccccc3)cc2)n1C1CCCCC1
CC50 [1]: ≥ 320 µM
pIC50 (Toxoplasma gondii [2]): 5.22
IC90 (Toxoplasma gondii [2]): 46 µM
inhibition at 10 µM (Toxoplasma gondii [7]): > 70%
Activity (Toxoplasma gondii [5]): inactive
selectivity ratio [3]: 53
Activity (Toxoplasma gondii [6]): inactive

CCCCCCn1c(-c2ccc(OC)cc2)nc2ccccc2c1=O
CC50 [1]: 42 µM
pIC50 (Toxoplasma gondii [2]): 5.00
IC90 (Toxoplasma gondii [2]): 48 µM
selectivity ratio [3]: 4

CCCCCCn1c(-c2ccc(N(C)C)cc2)nc2ccccc2c1=O
CC50 [1]: 50 µM
pIC50 (Toxoplasma gondii [2]): 4.74
IC90 (Toxoplasma gondii [2]): 52 µM
selectivity ratio [3]: 3

O=c1c2ccccc2nc(-c2ccc(OCc3ccccc3)cc2)n1CCc1cc2ccccc2[nH]1
CC50 [1]: ≥ 320 µM
pIC50 (Toxoplasma gondii [2]): 3.81
IC90 (Toxoplasma gondii [2]): 724 µM
selectivity ratio [3]: 2

CN(C)c1ccc(-c2nc3ccccc3c(=O)n2Cc2ccccc2)cc1
CC50 [1]: 133 µM
pIC50 (Toxoplasma gondii [2]): 4.92
IC90 (Toxoplasma gondii [2]): 60 µM
selectivity ratio [3]: 11

O=c1[nH]c(-c2ccc(OCc3ccccc3)cc2)nc2ccccc12
CC50 [1]: ≥ 320 µM
pIC50 (Toxoplasma gondii [2]): 3.82
IC90 (Toxoplasma gondii [2]): 4990 µM
selectivity ratio [3]: 2

CC(C)CCn1c(-c2ccc(OCc3ccccc3)cc2)nc2ccccc2c1=O
CC50 [1]: 118 µM
pIC50 (Toxoplasma gondii [2]): 4.92
IC90 (Toxoplasma gondii [2]): 55 µM
selectivity ratio [3]: 10

O=C1C(O)=C([C@H]2CC[C@H](c3ccc(Cl)cc3)CC2)C(=O)c2ccccc21 [ATOVAQUONE]
CC50 [1]: 21 µM
pIC50 (Toxoplasma gondii [2]): 6.70
IC90 (Toxoplasma gondii [2]): 0.6 µM
selectivity ratio [3]: 111

COc1ccccc1-c1nc(O)c2ccccc2n1
CC50 [1]: 305 µM
pIC50 (Toxoplasma gondii [2]): 4.25
IC90 (Toxoplasma gondii [2]): 266 µM
selectivity ratio [3]: 5

Oc1nc(-c2cccnc2)nc2ccccc12
CC50 [1]: ≥ 320 µM
pIC50 (Toxoplasma gondii [2]): 4.03
IC90 (Toxoplasma gondii [2]): 225 µM
selectivity ratio [3]: 3

O=c1[nH]c(-c2ccc3c(c2)OCO3)nc2ccccc12
CC50 [1]: ≥ 320 µM
pIC50 (Toxoplasma gondii [2]): 4.30
IC90 (Toxoplasma gondii [2]): 443 µM
selectivity ratio [3]: 6

COc1ccc(-n2c(-c3ccc(OCc4ccccc4)cc3)nc3ccccc3c2=O)cc1
CC50 [1]: 4 µM
pIC50 (Toxoplasma gondii [2]): 5.40
IC90 (Toxoplasma gondii [2]): 14 µM
Activity (Toxoplasma gondii [5]): Active
selectivity ratio [3]: 1
Activity (Toxoplasma gondii [6]): Active

CCCCCCn1c(-c2ccc(OCc3ccccc3)cc2)nc2ccccc2c1=O
CC50 [1]: 178 µM
pIC50 (Toxoplasma gondii [2]): 5.00
IC90 (Toxoplasma gondii [2]): 45 µM
Activity (Toxoplasma gondii [5]): Active
inhibition (Toxoplasma gondii [8]): inactive
selectivity ratio [3]: 18
Activity (Toxoplasma gondii [6]): Active

COc1ccc(-n2c(-c3ccc4c(c3)OCO4)nc3ccccc3c2=O)cc1
CC50 [1]: ≥ 320 µM
pIC50 (Toxoplasma gondii [2]): 4.40
IC90 (Toxoplasma gondii [2]): 91 µM
selectivity ratio [3]: 8

O=c1[nH]c(-c2ccc(OC(F)(F)F)cc2)nc2ccccc12
CC50 [1]: ≥ 320 µM
pIC50 (Toxoplasma gondii [2]): 4.57
IC90 (Toxoplasma gondii [2]): 447 µM
selectivity ratio [3]: 12

CN(C)c1ccc(-c2nc3ccccc3c(=O)n2C2CCCCC2)cc1
CC50 [1]: 112 µM
pIC50 (Toxoplasma gondii [2]): 4.82
IC90 (Toxoplasma gondii [2]): 67 µM
selectivity ratio [3]: 7

CC(C)CCn1c(-c2ccc(N(C)C)cc2)nc2ccccc2c1=O
CC50 [1]: 85 µM
pIC50 (Toxoplasma gondii [2]): 4.46
IC90 (Toxoplasma gondii [2]): 116 µM
selectivity ratio [3]: 2

COc1ccc(-c2nc3ccccc3c(=O)[nH]2)cc1
CC50 [1]: 125 µM
pIC50 (Toxoplasma gondii [2]): 4.70
IC90 (Toxoplasma gondii [2]): 121 µM
selectivity ratio [3]: 6

C[C@@H]1CC[C@H]2[C@@H](C)C(=O)O[C@@H]3O[C@@]4(C)CC[C@@H]1[C@]32OO4 [ARTEMISININ]
CC50 [1]: ≥ 320 µM
pIC50 (Toxoplasma gondii [2]): 5.70
IC90 (Toxoplasma gondii [2]): 19 µM
selectivity ratio [3]: 160

O=c1c2ccccc2nc(-c2ccc(OCc3ccccc3)cc2)n1-c1ccc(Br)cc1
CC50 [1]: 5 µM
pIC50 (Toxoplasma gondii [2]): 5.52
IC90 (Toxoplasma gondii [2]): 12 µM
inhibition (Toxoplasma gondii [4]): Active
inhibition at 10 µM (Toxoplasma gondii [7]): > 75%
Activity (Toxoplasma gondii [5]): Active
selectivity ratio [3]: 2

CC(C)=CCCC(C)=CCn1c(-c2ccc(OCc3ccccc3)cc2)nc2ccccc2c1=O
CC50 [1]: ≥ 320 µM
pIC50 (Toxoplasma gondii [2]): 5.15
IC90 (Toxoplasma gondii [2]): 58 µM
inhibition at 10 µM (Toxoplasma gondii [7]): > 70%
Activity (Toxoplasma gondii [5]): inactive
selectivity ratio [3]: 46
Activity (Toxoplasma gondii [6]): inactive

O=c1c2ccccc2nc(-c2ccc(OCc3ccccc3)cc2)n1CCc1ccc(O)cc1
CC50 [1]: 229 µM
pIC50 (Toxoplasma gondii [2]): 4.77
IC90 (Toxoplasma gondii [2]): 52 µM
selectivity ratio [3]: 13

CCCCCCCCCCn1c(-c2ccc(N(C)C)cc2)nc2ccccc2c1=O
CC50 [1]: ≥ 320 µM
pIC50 (Toxoplasma gondii [2]): 4.31
IC90 (Toxoplasma gondii [2]): 170 µM
selectivity ratio [3]: 7

O=c1[nH]c(-c2ccc(Br)cc2)nc2ccccc12
CC50 [1]: ≥ 320 µM
pIC50 (Toxoplasma gondii [2]): 4.04
IC90 (Toxoplasma gondii [2]): 414 µM
inhibition (Toxoplasma gondii [4]): Active
Activity (Toxoplasma gondii [5]): Active
selectivity ratio [3]: 3
Activity (Toxoplasma gondii [6]): Active

O=c1c2ccccc2nc(-c2ccc(OCc3ccccc3)cc2)n1Cc1ccccc1
CC50 [1]: ≥ 320 µM
pIC50 (Toxoplasma gondii [2]): 4.89
IC90 (Toxoplasma gondii [2]): 71 µM
inhibition at 10 µM (Toxoplasma gondii [7]): > 70%
Activity (Toxoplasma gondii [5]): inactive
selectivity ratio [3]: 25
Activity (Toxoplasma gondii [6]): inactive

CCCCCCCCCCn1c(-c2ccc(OCc3ccccc3)cc2)nc2ccccc2c1=O
CC50 [1]: ≥ 320 µM
pIC50 (Toxoplasma gondii [2]): 4.60
IC90 (Toxoplasma gondii [2]): 119 µM
selectivity ratio [3]: 13

COc1ccc(-c2nc3ccccc3c(=O)n2-c2ccc(Br)cc2)cc1
CC50 [1]: 196 µM
pIC50 (Toxoplasma gondii [2]): 4.51
IC90 (Toxoplasma gondii [2]): 83 µM
selectivity ratio [3]: 6

CN(C)c1ccc(-c2nc3ccccc3c(=O)n2CCc2ccc(O)cc2)cc1
CC50 [1]: 196 µM
pIC50 (Toxoplasma gondii [2]): 3.95
IC90 (Toxoplasma gondii [2]): 353 µM
selectivity ratio [3]: 2

CN(C)c1ccc(-c2nc(O)c3ccccc3n2)cc1
CC50 [1]: ≥ 320 µM
pIC50 (Toxoplasma gondii [2]): 4.85
IC90 (Toxoplasma gondii [2]): 281 µM
Activity (Toxoplasma gondii [5]): Active
inhibition (Toxoplasma gondii [8]): inactive
selectivity ratio [3]: 23
Activity (Toxoplasma gondii [6]): Active

Oc1nc(-c2ccc(F)cc2)nc2ccccc12
CC50 [1]: ≥ 320 µM
pIC50 (Toxoplasma gondii [2]): 4.54
IC90 (Toxoplasma gondii [2]): 260 µM
selectivity ratio [3]: 11

O=c1c2ccccc2nc(-c2ccc(Br)cc2)n1-c1ccc(Br)cc1
CC50 [1]: ≥ 320 µM
pIC50 (Toxoplasma gondii [2]): 4.36
IC90 (Toxoplasma gondii [2]): 126 µM
selectivity ratio [3]: 7
